{"source": "ChEMBL document CHEMBL4813989", "about": "“Design, synthesis, and biological evaluation of nitroisoxazole-containing spiro[pyrrolidin-oxindole] derivatives as novel glutathione peroxidase 4/mouse double minute 2 dual inhibitors that inhibit breast adenocarcinoma cell proliferation” (Eur J Med Chem, 2021)", "key": {"[1]": {"system": "MCF7", "experiment": "Antitumor activity against human MCF7 cells xenografted in BALB/c mouse assessed as tumor growth inhibition at 25 to 50 mg/kg, ip administered once for 17 days", "type": "functional, organism-based", "details": "dose 25-50 mg/kg, time 17.0 day"}, "[2]": {"system": "MCF7", "experiment": "Induction of apoptosis in human MCF7 cells assessed as necrotic cells at 1 uM incubated for 48 hrs by annexin-V-FITC and PI staining based flow cytometry analysis (reference value: 3.21 %)", "type": "functional"}, "[3]": {"system": "MCF7", "experiment": "Induction of apoptosis in human MCF7 cells assessed as early apoptotic cells at 1 uM incubated for 48 hrs in presence of Fer-1 by annexin-V-FITC and PI staining based flow cytometry analysis (reference value: 1.05 %)", "type": "functional"}, "[4]": {"system": "MCF7", "experiment": "Induction of apoptosis in human MCF7 cells assessed as necrotic cells at 0.5 uM incubated for 48 hrs by annexin-V-FITC and PI staining based flow cytometry analysis (reference value: 3.21 %)", "type": "functional"}, "[5]": {"system": "MCF7", "experiment": "Induction of apoptosis in human MCF7 cells assessed as viable cells at 0.1 uM incubated for 48 hrs by annexin-V-FITC and PI staining based flow cytometry analysis (reference value: 93.1 %)", "type": "functional", "details": "read-out: Activity"}, "[6]": {"target": "T1, Phospholipid hydroperoxide glutathione peroxidase GPX4 (Homo sapiens) (UniProt P36969)", "T1 sequence (whole entry)": "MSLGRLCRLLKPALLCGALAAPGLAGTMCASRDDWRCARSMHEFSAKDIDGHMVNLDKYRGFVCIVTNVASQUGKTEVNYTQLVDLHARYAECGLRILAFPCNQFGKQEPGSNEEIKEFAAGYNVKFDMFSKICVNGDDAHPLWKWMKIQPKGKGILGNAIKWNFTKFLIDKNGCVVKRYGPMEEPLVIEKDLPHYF", "experiment": "Binding affinity in GPX4 in human MCF7 cells assessed as increase in stability in 60 and 65 degreeC at 100 uM by cellular thermal shift assay", "type": "cell-based"}, "[7]": {"system": "MCF7", "experiment": "Induction of apoptosis in human MCF7 cells assessed as late apoptotic cells at 1 uM incubated for 48 hrs in presence of Fer-1 by annexin-V-FITC and PI staining based flow cytometry analysis (reference value: […] %)", "type": "functional"}, "[8]": {"system": "MCF7", "experiment": "Induction of apoptosis in human MCF7 cells assessed as viable cells at 0.5 uM incubated for 48 hrs by annexin-V-FITC and PI staining based flow cytometry analysis (reference value: 93.1 %)", "type": "functional", "details": "read-out: Activity"}, "[9]": {"target": "E3 ubiquitin-protein ligase Mdm2 (Mus musculus) (UniProt P23804)", "sequence (P23804 whole entry)": "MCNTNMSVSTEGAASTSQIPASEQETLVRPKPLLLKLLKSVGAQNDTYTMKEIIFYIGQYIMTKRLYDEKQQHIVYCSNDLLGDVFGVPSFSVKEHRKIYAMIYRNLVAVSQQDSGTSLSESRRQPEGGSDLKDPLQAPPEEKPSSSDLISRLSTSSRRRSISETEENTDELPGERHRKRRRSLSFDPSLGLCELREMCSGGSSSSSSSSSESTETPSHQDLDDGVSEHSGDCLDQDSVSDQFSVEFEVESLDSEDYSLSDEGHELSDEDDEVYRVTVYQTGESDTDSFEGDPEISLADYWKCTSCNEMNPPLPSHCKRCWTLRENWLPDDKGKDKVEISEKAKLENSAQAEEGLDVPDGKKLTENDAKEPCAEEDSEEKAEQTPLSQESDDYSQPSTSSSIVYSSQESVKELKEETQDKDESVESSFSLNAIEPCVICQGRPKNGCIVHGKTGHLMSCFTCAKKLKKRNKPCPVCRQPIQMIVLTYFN", "experiment": "In vivo inhibition of MDM2 in human MCF7 cells xenografted in BALB/c mouse assessed as increase in p53 expression at 25 to 50 mg/kg, ip administered once for 17 days by immunofluorescence analysis", "type": "functional, organism-based", "details": "dose 25-50 mg/kg, time 17.0 day"}, "[10]": {"system": "MCF7", "experiment": "Induction of apoptosis in human MCF7 cells assessed as viable cells at 1 uM incubated for 48 hrs by annexin-V-FITC and PI staining based flow cytometry analysis (reference value: 93.1 %)", "type": "functional", "details": "read-out: Activity"}, "[11]": {"system": "MCF7", "experiment": "Induction of apoptosis in human MCF7 cells assessed as necrotic cells at 1 uM incubated for 48 hrs in presence of Fer-1 by annexin-V-FITC and PI staining based flow cytometry analysis (reference value: 3.21 %)", "type": "functional"}, "[12]": {"system": "MCF7", "experiment": "Induction of LPO production in human MCF7 cells at 1 uM in presence of Fer-1 by C11-BODIPY staining based confocal laser scanning microscopic analysis", "type": "functional, cell-based"}, "[13]": {"system": "MCF7", "experiment": "Induction of ROS production in human MCF7 cells at 1 uM in presence of Fer-1 by DCFH-DA assay", "type": "functional, cell-based"}, "[14]": {"system": "MCF-10A", "experiment": "Cytotoxicity against human MCF-10A cells assessed as reduction in cell viability incubated for 48 hrs by CCK8 assay", "type": "cell-based"}, "[15]": {"system": "MCF7", "experiment": "Induction of apoptosis in human MCF7 cells assessed as late apoptotic cells at 1 uM incubated for 48 hrs by annexin-V-FITC and PI staining based flow cytometry analysis (reference value: 2.61 %)", "type": "functional"}, "[16]": {"system": "MCF7", "experiment": "Induction of apoptosis in human MCF7 cells assessed as increase in cleaved caspase-9 level at 2 uM incubated for 48 hrs by Western blot analysis", "type": "functional, cell-based"}, "[17]": {"system": "Mus musculus", "experiment": "In vivo induction of apoptosis in human MCF7 cells xenografted in BALB/c mouse assessed as increase in TUNEL expression at 25 to 50 mg/kg, ip administered once for 17 days by immunohistochemical analysis", "type": "functional, organism-based", "details": "dose 25-50 mg/kg, time 17.0 day"}, "[18]": {"system": "MCF7", "experiment": "Induction of apoptosis in human MCF7 cells assessed as early apoptotic cells at 0.5 uM incubated for 48 hrs by annexin-V-FITC and PI staining based flow cytometry analysis (reference value: 1.05 %)", "type": "functional"}, "[19]": {"system": "MCF7", "experiment": "Induction of apoptosis in human MCF7 cells assessed as late apoptotic cells at 0.1 uM incubated for 48 hrs by annexin-V-FITC and PI staining based flow cytometry analysis (reference value: 2.61 %)", "type": "functional"}, "[20]": {"experiment": "Toxicity in BALB/c mouse xenografted with human MCF7 cells assessed as effect on body weight at 25 to 50 mg/kg, ip administered once for 17 days", "type": "organism-based", "details": "in vivo, 408 h, dose 25-50 mg/kg, time 17 day"}, "[21]": {"system": "MCF7", "experiment": "Antiproliferative activity against human MCF7 cells assessed as reduction in cell growth incubated for 48 hrs in presence of Fer-1 by CCK8 assay", "details": "MCF7, 48 h"}, "[22]": {"system": "MCF7", "experiment": "Induction of apoptosis in human MCF7 cells assessed as early apoptotic cells at 1 uM incubated for 48 hrs by annexin-V-FITC and PI staining based flow cytometry analysis (reference value: 1.05 %)", "type": "functional"}, "[23]": {"system": "MCF7", "experiment": "Induction of ROS production in human MCF7 cells at 1 uM by DCFH-DA assay", "type": "functional, cell-based"}, "[24]": {"target": "T1, Phospholipid hydroperoxide glutathione peroxidase GPX4 (Homo sapiens)", "experiment": "Inhibition of GPX4 in human MCF7 cells assessed as increase in GPX4 degradation incubated for 48 hrs by Western blot analysis", "type": "cell-based", "details": "dose 0.1-2 µM"}, "[25]": {"target": "T2, E3 ubiquitin-protein ligase Mdm2 (Homo sapiens, UniProt Q00987)", "experiment": "Inhibition of MDM2 in human MCF7 cells assessed as increase in MDM2 accumulation at 0.5 to 2 uM incubated for 48 hrs by Western blot analysis", "type": "cell-based", "details": "dose 0.5-2 µM"}, "[26]": {"system": "MCF7", "experiment": "Induction of apoptosis in human MCF7 cells assessed as necrotic cells at 0.1 uM incubated for 48 hrs by annexin-V-FITC and PI staining based flow cytometry analysis (reference value: 3.21 %)", "type": "functional"}, "[27]": {"system": "MCF7", "experiment": "Induction of apoptosis in human MCF7 cells assessed as late apoptotic cells at 0.5 uM incubated for 48 hrs by annexin-V-FITC and PI staining based flow cytometry analysis (reference value: 2.61 %)", "type": "functional"}, "[28]": {"system": "MCF7", "experiment": "Induction of apoptosis in human MCF7 cells assessed as viable cells at 1 uM incubated for 48 hrs in presence of Fer-1 by annexin-V-FITC and PI staining based flow cytometry analysis (reference value: 93.1 %)", "type": "functional", "details": "read-out: Activity"}, "[29]": {"system": "MCF7", "experiment": "Induction of LPO production in human MCF7 cells at 1 uM by C11-BODIPY staining based confocal laser scanning microscopic analysis", "type": "functional, cell-based"}, "[30]": {"system": "MCF7", "experiment": "Antitumor activity against human MCF7 cells xenografted in BALB/c mouse assessed as reduction in Ki-67 expression at 25 to 50 mg/kg, ip administered once for 17 days by immunohistochemical analysis", "type": "functional, organism-based", "details": "dose 25-50 mg/kg, time 17.0 day"}, "[31]": {"system": "MCF7", "experiment": "Induction of apoptosis in human MCF7 cells assessed as early apoptotic cells at 0.1 uM incubated for 48 hrs by annexin-V-FITC and PI staining based flow cytometry analysis (reference value: 1.05 %)", "type": "functional"}, "[32]": {"target": "T2, E3 ubiquitin-protein ligase Mdm2", "experiment": "Inhibition of MDM2 in human MCF7 cells assessed as increase in p53 accumulation at 0.5 to 2 uM incubated for 48 hrs by Western blot analysis", "type": "cell-based", "details": "dose 0.5-2 µM"}, "[33]": {"target": "T2, E3 ubiquitin-protein ligase Mdm2", "experiment": "Inhibition of MDM2 (unknown origin) using peptide as substrate incubated for 30 mins by fluorescence polarization assay"}, "[34]": {"system": "MCF7", "experiment": "Antiproliferative activity against human MCF7 cells assessed as reduction in cell growth incubated for 48 hrs by CCK8 assay", "details": "MCF7, 48 h"}}, "note": "Calls of active or inactive are those of the source. The calls are words filed in the database; no cut-off is given here."}
{"smiles": "Cc1noc([C@@H]2[C@@H](c3ccccc3)[C@H](C(F)(F)F)N[C@@]23C(=O)Nc2cc(Cl)ccc23)c1[N+](=O)[O-]", "values": [{"measurement": "TGI", "setting": "[1]", "result": "Active"}, {"measurement": "Activity", "setting": "[2]", "result": 2.61, "unit": "%"}, {"measurement": "Activity", "setting": "[3]", "result": 7.98, "unit": "%"}, {"measurement": "Activity", "setting": "[4]", "result": 5.25, "unit": "%"}, {"measurement": "viability at 0.1 µM", "setting": "[5]", "result": 91.3, "unit": "%"}, {"measurement": "Activity", "setting": "[6]", "result": "Active"}, {"measurement": "Activity", "setting": "[7]", "result": 4.71, "unit": "%"}, {"measurement": "viability at 0.5 µM", "setting": "[8]", "result": 83.8, "unit": "%"}, {"measurement": "inhibition", "setting": "[9]", "result": "Active"}, {"measurement": "viability at 1 µM", "setting": "[10]", "result": 81.2, "unit": "%"}, {"measurement": "Activity", "setting": "[11]", "result": 3.35, "unit": "%"}, {"measurement": "Activity", "setting": "[12]", "result": "inactive"}, {"measurement": "Activity", "setting": "[13]", "result": "inactive"}, {"measurement": "Activity", "setting": "[14]", "result": "Non-Toxic"}, {"measurement": "Activity", "setting": "[15]", "result": 4.91, "unit": "%"}, {"measurement": "Activity", "setting": "[16]", "result": "Active"}, {"measurement": "Activity", "setting": "[17]", "result": "Active"}, {"measurement": "Activity", "setting": "[18]", "result": 7.81, "unit": "%"}, {"measurement": "Activity", "setting": "[19]", "result": 2.85, "unit": "%"}, {"measurement": "Activity", "setting": "[20]", "result": "Non-Toxic"}, {"measurement": "IC50", "setting": "[21]", "result": 13500, "unit": "nM"}, {"measurement": "Activity", "setting": "[22]", "result": 11.3, "unit": "%"}, {"measurement": "Activity", "setting": "[23]", "result": "Active"}, {"measurement": "inhibition", "setting": "[24]", "result": "Active"}, {"measurement": "inhibition", "setting": "[25]", "result": "Active"}, {"measurement": "Activity", "setting": "[26]", "result": 4.51, "unit": "%"}, {"measurement": "Activity", "setting": "[27]", "result": 3.16, "unit": "%"}, {"measurement": "viability at 1 µM", "setting": "[28]", "result": 84, "unit": "%"}, {"measurement": "Activity", "setting": "[29]", "result": "Active"}, {"measurement": "Activity", "setting": "[30]", "result": "Active"}, {"measurement": "Activity", "setting": "[31]", "result": 1.39, "unit": "%"}, {"measurement": "inhibition", "setting": "[32]", "result": "Active"}, {"measurement": "Ki", "setting": "[33]", "result": 240, "unit": "nM"}, {"measurement": "IC50", "setting": "[34]", "result": 120, "unit": "nM"}]}
